Data published in patent publication US20050075375A1 (priority 2003, published 2005).

Test system: monocistronic NK5.1 HCV replicon in Huh7 cells
Test: HCV replicon assay, monocistronic replicon cell line
Assay type: cell-based, hepatitis C virus
Settings: Hepatitis C virus, Huh-7; monocistronic NK5.1 HCV replicon in Huh7 cells; median value; read-out: Mono EC50 Median
Outline: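 EC50 derives from the HCV RNA/GAPDH RNA ratio by one-step TaqMan RT-PCR, relative to DMSO-only wells. Compounds (six half-log concentrations, 0.6% DMSO) were incubated 3 days at 37 °C with NK5.1 monocistronic replicon Huh7 cells plated a day earlier.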

SMILES	EC50 [µM]
CCCOc1ccc(O)c(-c2nc(-c3ncccc3C)no2)c1 [Compound 272, 2-[3-(3-Methyl-pyridin-2-yl)-[1,2,4]oxadiazol-5-yl]-4-propoxy-phenol]	> 32
Cc1cccnc1-c1noc(-c2cc(OCCc3ccccc3)ccc2O)n1 [Compound 273, 2-[3-(3-Methyl-pyridin-2-yl)-[1,2,4]oxadiazol-5-yl]-4-phenethyloxy-phenol]	> 19
Cc1cccnc1-c1noc(-c2ccc(OCc3ccccc3)cc2O)n1 [Compound 274, 5-Benzyloxy-2-[3-(3-methyl-pyridin-2-yl)-[1,2,4]oxadiazol-5-yl]-phenol]	1.8
CC(=O)Nc1ccc(O)c(-c2nc(-c3ncccc3C)no2)c1 [Compound 275, N-{4-Hydroxy-3-[3-(3-methyl-pyridin-2-yl)-[1,2,4]oxadiazol-5-yl]-phenyl}-acetamide]	18
Cc1cccnc1-c1noc(-c2ccc(NC(=O)OC(C)(C)C)cc2O)n1 [Compound 276, {3-Hydroxy-4-[3-(3-methyl-pyridin-2-yl)-[1,2,4]oxadiazol-5-yl]-phenyl}-carbamic acid tert-butyl ester]	0.7
Cc1cccnc1-c1noc(-c2ccc(N)cc2O)n1 [Compound 277, 5-Amino-2-[3-(3-methyl-pyridin-2-yl)-[1,2,4]oxadiazol-5-yl]-phenol]	6
Cc1cccnc1-c1noc(-c2cc(Cl)cc(Cl)c2O)n1 [Compound 278, 2,4-Dichloro-6-[3-(3-methyl-pyridin-2-yl)-[1,2,4]oxadiazol-5-yl]-phenol]	3.8
Cc1cccnc1-c1noc(-c2cc(Cl)cc(Br)c2O)n1 [Compound 279, 2-Bromo-4-chloro-6-[3-(3-methyl-pyridin-2-yl)-[1,2,4]oxadiazol-5-yl]-phenol]	3.3
Cc1cccnc1-c1noc(-c2cc(Br)cc(Br)c2O)n1 [Compound 280, 2,4-Dibromo-6-[3-(3-methyl-pyridin-2-yl)-[1,2,4]oxadiazol-5-yl]-phenol]	7.4
Oc1c(Cl)cc(Cl)cc1-c1nc(-c2ccccn2)no1 [Compound 281]	2.1
COc1ccc(-c2nc(-c3ncccc3C)no2)c(O)c1OC [Compound 282, 2,3-Dimethoxy-6-[3-(3-methyl-pyridin-2-yl)-[1,2,4]oxadiazol-5-yl]-phenol]	1.3
COc1ccc(O)c(-c2nc(-c3ccoc3)no2)c1 [Compound 283, 2-(3-Furan-3-yl-[1,2,4]oxadiazol-5-yl)-4-methoxy-phenol]	15
Cc1ccc(O)c(-c2nc(-c3ccoc3)no2)c1 [Compound 284, 2-(3-Furan-3-yl-[1,2,4]oxadiazol-5-yl)-4-methyl-phenol]	17
Oc1ccc2ccccc2c1-c1nc(-c2ccoc2)no1 [Compound 285]	11
COc1ccc(-c2nc(-c3ccoc3)no2)c(O)c1 [Compound 286, 2-(3-Furan-3-yl-[1,2,4]oxadiazol-5-yl)-5-methoxy-phenol]	9.7
Oc1ccc(OC(F)(F)F)cc1-c1nc(-c2ccc(C(F)(F)F)cn2)no1 [Compound 287, 4-Trifluoromethoxy-2-[3-(5-trifluoromethyl-pyridin-2-yl)-[1,2,4]oxadiazol-5-yl]-phenol]	1.7
Cc1cccnc1-c1noc(-c2ccc(NCc3ccccc3)cc2O)n1 [Compound 288, 5-Benzylamino-2-[3-(3-methyl-pyridin-2-yl)-[1,2,4]oxadiazol-5-yl]-phenol]	0.8
Cc1cccnc1-c1noc(-c2ccc(NC(=O)c3ccccc3)cc2O)n1 [Compound 289]	6.1
Cc1cccnc1-c1noc(-c2cc(NC(=O)c3ccccc3)ccc2O)n1 [Compound 290, N-{4-Hydroxy-3-[3-(3-methyl-pyridin-2-yl)-[1,2,4]oxadiazol-5-yl]-phenyl}-benzamide]	2.8
CC(=O)Nc1ccc(-c2nc(-c3ncccc3C)no2)c(O)c1 [Compound 291]	6
Oc1ccc(Br)cc1-c1nc(-c2ncccc2C(F)(F)F)no1 [Compound 292, 4-Bromo-2-[3-(3-trifluoromethyl-pyridin-2-yl)-[1,2,4]oxadiazol-5-yl]-phenol]	1.5
Cc1cccnc1-c1noc(-c2cccc(C)c2O)n1 [Compound 293, 2-Methyl-6-[3-(3-methyl-pyridin-2-yl)-[1,2,4]oxadiazol-5-yl]-phenol]	1.7
CSc1ccc(O)c(-c2nc(-c3ncccc3C)no2)c1 [Compound 294, 2-[3-(3-Methyl-pyridin-2-yl)-[1,2,4]oxadiazol-5-yl]-4-methylsulfanyl-phenol]	0.2
Cc1ccc(-c2nc(-c3ncccc3C)no2)c(O)c1 [Compound 295]	2.1
Cc1cccnc1-c1noc(-c2cc(C3OCC(C)(C)CO3)ccc2O)n1 [Compound 297, 4-(5,5-Dimethyl-[1,3]dioxan-2-yl)-2-[3-(3-methyl-pyridin-2-yl)-[1,2,4]oxadiazol-5-yl]-phenol]	0.43
Cc1cccnc1-c1noc(-c2cccc(NC(=O)OC(C)(C)C)c2O)n1 [Compound 298]	0.62
COc1ccc(O)c(-c2noc(-c3ccoc3)n2)c1 [Compound 299, 2-(5-Furan-3-yl-[1,2,4]oxadiazol-3-yl)-4-methoxy-phenol]	21.7

SMILES	EC50 [µM]
Cc1cccnc1-c1noc(-c2cccc(C(C)C)c2O)n1 [Compound 300, 2-Isopropyl-6-[3-(3-methyl-pyridin-2-yl)-[1,2,4]oxadiazol-5-yl]-phenol]	1.5
COc1ccc(O)c(-c2noc(-c3ncccc3C)n2)c1 [Compound 301, 4-Methoxy-2-[5-(3-methyl-pyridin-2-yl)-[1,2,4]oxadiazol-3-yl]-phenol]	> 32
COc1ccc(O)c(-c2noc(-c3ccco3)n2)c1 [Compound 302, 2-(5-Furan-2-yl-[1,2,4]oxadiazol-3-yl)-4-methoxy-phenol]	16
Cc1ccccc1-c1nnc(-c2ccco2)o1 [Compound 303, 2-Furan-2-yl-5-o-tolyl-[1,3,4]oxadiazole]	> 32
Oc1ccc2ccccc2c1-c1nnc(-c2ccccc2)o1 [Compound 304, 1-(5-Phenyl-[1,3,4]oxadiazol-2-yl)-naphthalen-2-ol]	> 32
Oc1ccc2ccccc2c1-c1nnc(-c2ccccc2F)o1 [Compound 305, 1-[5-(2-Fluoro-phenyl)-[1,3,4]oxadiazol-2-yl]-naphthalen-2-ol]	> 32
Oc1ccc2ccccc2c1-c1nnc(-c2ccccc2C(F)(F)F)o1 [Compound 306, 1-[5-(2-Trifluoromethyl-phenyl)-[1,3,4]oxadiazol-2-yl]-naphthalen-2-ol]	26
Oc1ccc2ccccc2c1-c1nnc(-c2ccco2)o1 [Compound 307, 1-(5-Furan-2-yl-[1,3,4]oxadiazol-2-yl)-naphthalen-2-ol]	> 32
Oc1ccc2ccccc2c1-c1nnc(-c2cccs2)o1 [Compound 308, 1-(5-Thiophen-2-yl-[1,3,4]oxadiazol-2-yl)-naphthalen-2-ol]	26
Oc1ccc2ccccc2c1-c1nnc(-c2ncc(C(F)(F)F)cc2Cl)o1 [Compound 309, 1-[5-(3-Chloro-5-trifluoromethyl-pyridin-2-yl)-[1,3,4]oxadiazol-2-yl]-naphthalen-2-ol]	16
Oc1ccc2ccccc2c1-c1nnc(-c2c(Cl)cccc2Cl)o1 [Compound 310, 1-[5-(2,6-Dichloro-phenyl)-[1,3,4]oxadiazol-2-yl]-naphthalen-2-ol]	4.4
O=[N+]([O-])c1ccccc1-c1nnc(-c2c(O)ccc3ccccc23)o1 [Compound 311, 1-[5-(2-Nitro-phenyl)-[1,3,4]oxadiazol-2-yl]-naphthalen-2-ol]	4
Cc1ccccc1-c1nnc(-c2ccccc2)o1 [Compound 312, 2-Phenyl-5-o-tolyl-[1,3,4]oxadiazole]	> 32
Cc1ccccc1-c1nnc(-c2ccccc2F)o1 [Compound 313, 2-(2-Fluoro-phenyl)-5-o-tolyl-[1,3,4]oxadiazole]	> 32
Cc1ccccc1-c1nnc(-c2ccccc2C(F)(F)F)o1 [Compound 314, 2-o-Tolyl-5-(2-trifluoromethyl-phenyl)-[1,3,4]oxadiazole]	20
Cc1ccccc1-c1nnc(-c2ccccc2[N+](=O)[O-])o1 [Compound 315, 2-(2-Nitro-phenyl)-5-o-tolyl-[1,3,4]oxadiazole]	> 32
Cc1ccccc1-c1nnc(-c2c(Cl)cccc2Cl)o1 [Compound 316, 2-(2,6-Dichloro-phenyl)-5-o-tolyl-[1,3,4]oxadiazole]	> 32
Cc1ccccc1-c1nnc(-c2cccs2)o1 [Compound 317, 2-Thiophen-2-yl-5-o-tolyl-[1,3,4]oxadiazole]	> 32
Oc1ccccc1-c1nnc(-c2ccccc2)o1 [Compound 318, 2-(5-Phenyl-[1,3,4]oxadiazol-2-yl)-phenol]	14
Oc1ccccc1-c1nnc(-c2ccccc2F)o1 [Compound 319, 2-[5-(2-Fluoro-phenyl)-[1,3,4]oxadiazol-2-yl]-phenol]	18
Oc1ccccc1-c1nnc(-c2ccccc2C(F)(F)F)o1 [Compound 320, 2-[5-(2-Trifluoromethyl-phenyl)-[1,3,4]oxadiazol-2-yl]-phenol]	> 32
O=[N+]([O-])c1ccccc1-c1nnc(-c2ccccc2O)o1 [Compound 321, 2-[5-(2-Nitro-phenyl)-[1,3,4]oxadiazol-2-yl]-phenol]	> 32
Oc1ccccc1-c1nnc(-c2c(Cl)cccc2Cl)o1 [Compound 322, 2-[5-(2,6-Dichloro-phenyl)-[1,3,4]oxadiazol-2-yl]-phenol]	12
Oc1ccccc1-c1nnc(-c2ccco2)o1 [Compound 323, 2-(5-Furan-2-yl-[1,3,4]oxadiazol-2-yl)-phenol]	> 32
Oc1ccccc1-c1nnc(-c2cccs2)o1 [Compound 324, 2-(5-Thiophen-2-yl-[1,3,4]oxadiazol-2-yl)-phenol]	> 32
COc1ccccc1-c1nnc(-c2ccccc2)o1 [Compound 325, 2-(2-Methoxy-phenyl)-5-phenyl-[1,3,4]oxadiazole]	> 32
